Data reported in publication PMC9019904, “AD Informer Set: Chemical tools to facilitate Alzheimer's disease drug discovery” (Alzheimer's & Dementia : Translational Research & Clinical …, 2022).

Columns and labels:
[1] = tested on: BV2 (mouse microglia) cell line; experiment: pHrodo-myelin phagocytosis/cell viability high content imaging assay: viability (cell count, nuclear area, nuclear intensity); details: BV2 cells, 10 uM compound, 48 hours treatment
Procedure, shortened: (§1)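 10 μM single dose, 48 h total; pHrodo-myelin present final 20 h. Read-out: automated imaging, total cell count/well, mean nuclear intensity/cell. n=2, normalized to untreated wells, % control.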

[2] = tested on: HMC3 (human microglia) cell line; experiment: as above; details: HMC3 cells, 10 uM compound, 48 hours treatment
Procedure, shortened: as §1

[3] = tested on: BV2 (mouse microglia) cell line; experiment: pHrodo-myelin phagocytosis/cell viability high content imaging assay: phagocytosis signal; format: cell-based; details: BV2 cells, 10 uM compound, 48 hours treatment, pHrodo-myelin final 20 hours
Procedure, shortened: (§2)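 Cells receive pHrodo-myelin, then are imaged at high content approximately 22 hours later. Phagocytosis signal and viability are captured in the same run. Three measurements are extracted per well.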

[4] = tested on: HMC3 (human microglia) cell line; experiment: as above; format: cell-based; details: HMC3 cells, 10 uM compound, 48 hours treatment, pHrodo-myelin final 20 hours
Procedure, shortened: as §2

## O=C(N/N=C/c1ccc(Cl)cc1)c1ccccc1 [UNC10302877A]
[1]
  1. Cell count (% control): 100.1 % control
  2. Nuclear Area (% Control): 103.0 % Control
  3. Nuclear DNA Intensity (% control): 107.1 % control
[2]
  1. Cell count (% control): 103.0 % control
  2. Nuclear Area (% Control): 94.5 % Control
  3. Nuclear DNA Intensity (% control): 106.0 % control
[3]
  4. Phagocytosis (% control): 104.1 % control
[4]
  4. Phagocytosis (% control): 87.3 % control

## CC(C)c1ccc(/C=N/NC(=O)c2ccc(O)cc2)cc1 [UNC10302878A]
[1]
  1. Cell count (% control): 104.0 % control
  2. Nuclear Area (% Control): 103.1 % Control
  3. Nuclear DNA Intensity (% control): 108.0 % control
[2]
  1. Cell count (% control): 137.1 % control
  2. Nuclear Area (% Control): 101.0 % Control
  3. Nuclear DNA Intensity (% control): 96.0 % control
[3]
  4. Phagocytosis (% control): 129.4 % control
[4]
  4. Phagocytosis (% control): 80.2 % control

## c1ccc(CNc2nc(NCc3ccccc3)c3ccccc3n2)cc1 [UNC10302879A]
[1]
  1. Cell count (% control): 27.3 % control
  2. Nuclear Area (% Control): 94.3 % Control
  3. Nuclear DNA Intensity (% control): 65.0 % control
[2]
  1. Cell count (% control): 28.2 % control
  2. Nuclear Area (% Control): 43.8 % Control
  3. Nuclear DNA Intensity (% control): 179.2 % control
[3]
  4. Phagocytosis (% control): 0.00106 % control
[4]
  4. Phagocytosis (% control): 0.0516 % control

## Cc1cc(NC(=O)Nc2ccccc2)n(-c2ccccc2)n1 [UNC10302880A]
[1]
  1. Cell count (% control): 120.0 % control
  2. Nuclear Area (% Control): 104.5 % Control
  3. Nuclear DNA Intensity (% control): 102.6 % control
[2]
  1. Cell count (% control): 145.4 % control
  2. Nuclear Area (% Control): 97.9 % Control
  3. Nuclear DNA Intensity (% control): 96.8 % control
[3]
  4. Phagocytosis (% control): 135.3 % control
[4]
  4. Phagocytosis (% control): 71.0 % control

## O=C(O)c1cc2nc(-c3ccc(Cl)cc3)cc(C(F)(F)F)n2n1 [UNC10302881A]
[1]
  1. Cell count (% control): 116.3 % control
  2. Nuclear Area (% Control): 105.9 % Control
  3. Nuclear DNA Intensity (% control): 97.1 % control
[2]
  1. Cell count (% control): 123.0 % control
  2. Nuclear Area (% Control): 99.8 % Control
  3. Nuclear DNA Intensity (% control): 93.1 % control
[3]
  4. Phagocytosis (% control): 163.1 % control
[4]
  4. Phagocytosis (% control): 94.6 % control

## Cc1ccccc1NC(=O)CN1C(=O)N/C(=C/c2ccccc2OCc2ccc(C(=O)O)cc2)C1=O [UNC10302882A]
[1]
  1. Cell count (% control): 94.9 % control
  2. Nuclear Area (% Control): 109.5 % Control
  3. Nuclear DNA Intensity (% control): 96.5 % control
[2]
  1. Cell count (% control): 155.5 % control
  2. Nuclear Area (% Control): 101.8 % Control
  3. Nuclear DNA Intensity (% control): 92.5 % control
[3]
  4. Phagocytosis (% control): 153.2 % control
[4]
  4. Phagocytosis (% control): 89.7 % control

## O=C(/C=C/c1ccco1)Nc1ncc(Cc2ccccc2)s1 [UNC10302883A]
[1]
  1. Cell count (% control): 36.1 % control
  2. Nuclear Area (% Control): 95.3 % Control
  3. Nuclear DNA Intensity (% control): 118.7 % control
[2]
  1. Cell count (% control): 163.4 % control
  2. Nuclear Area (% Control): 60.3 % Control
  3. Nuclear DNA Intensity (% control): 203.4 % control
[3]
  4. Phagocytosis (% control): 12.7 % control
[4]
  4. Phagocytosis (% control): 17.7 % control

## Br.CCCc1cc(-c2nc(-c3ccc(C)cc3)cs2)ccn1 [UNC10302889A]
[1]
  1. Cell count (% control): 52.9 % control
  2. Nuclear Area (% Control): 97.6 % Control
  3. Nuclear DNA Intensity (% control): 117.7 % control
[2]
  1. Cell count (% control): 81.4 % control
  2. Nuclear Area (% Control): 79.1 % Control
  3. Nuclear DNA Intensity (% control): 141.7 % control
[3]
  4. Phagocytosis (% control): 198.0 % control
[4]
  4. Phagocytosis (% control): 101.1 % control

## Nc1ncnc2c1nc(Sc1ccc(Cl)cc1)n2[C@@H]1O[C@@H]2COP(=O)([O-])O[C@H]2[C@H]1O.[Na+] [UNC10302890A]
[1]
  1. Cell count (% control): 107.7 % control
  2. Nuclear Area (% Control): 106.8 % Control
  3. Nuclear DNA Intensity (% control): 98.4 % control
[2]
  1. Cell count (% control): 115.9 % control
  2. Nuclear Area (% Control): 99.4 % Control
  3. Nuclear DNA Intensity (% control): 99.1 % control
[3]
  4. Phagocytosis (% control): 104.7 % control
[4]
  4. Phagocytosis (% control): 84.6 % control

## CN(C)CCCn1c(N)c(-c2nc3ccccc3[nH]2)c2nc3ccccc3nc21 [UNC10302891A]
[1]
  1. Cell count (% control): 121.8 % control
  2. Nuclear Area (% Control): 105.7 % Control
  3. Nuclear DNA Intensity (% control): 98.0 % control
[2]
  1. Cell count (% control): 137.9 % control
  2. Nuclear Area (% Control): 99.6 % Control
  3. Nuclear DNA Intensity (% control): 97.0 % control
[3]
  4. Phagocytosis (% control): 109.5 % control
[4]
  4. Phagocytosis (% control): 44.4 % control

## Cc1cc2c(cc1C(=O)c1ccc(C(=O)O)cc1)C(C)(C)CCC2(C)C [UNC10302892A]
[1]
  1. Cell count (% control): 95.3 % control
  2. Nuclear Area (% Control): 107.4 % Control
  3. Nuclear DNA Intensity (% control): 95.0 % control
[2]
  1. Cell count (% control): 88.9 % control
  2. Nuclear Area (% Control): 102.9 % Control
  3. Nuclear DNA Intensity (% control): 97.5 % control
[3]
  4. Phagocytosis (% control): 90.2 % control
[4]
  4. Phagocytosis (% control): 75.7 % control

## Fc1ccc(C(CCCNCC2CCc3[nH]c4ccc(F)cc4c3C2)c2ccc(F)cc2)cc1 (stereo not drawn) [UNC10302893A]
[1]
  1. Cell count (% control): 10.4 % control
  2. Nuclear Area (% Control): 127.3 % Control
  3. Nuclear DNA Intensity (% control): 33.1 % control
[2]
  1. Cell count (% control): 14.1 % control
  2. Nuclear Area (% Control): 53.2 % Control
  3. Nuclear DNA Intensity (% control): 215.4 % control
[3]
  4. Phagocytosis (% control): 0.0 % control
[4]
  4. Phagocytosis (% control): 0.0 % control

## CN(C)C/C=C/C(=O)Nc1cc2c(Nc3ccc(F)c(Cl)c3)ncnc2cc1O[C@H]1CCOC1 [UNC10302894A]
[1]
  2. Nuclear Area (% Control): 107.0 % Control
  3. Nuclear DNA Intensity (% control): 89.4 % control
[2]
  1. Cell count (% control): 95.3 % control
  2. Nuclear Area (% Control): 52.1 % Control
  3. Nuclear DNA Intensity (% control): 246.1 % control
[3]
  4. Phagocytosis (% control): 41.4 % control
[4]
  4. Phagocytosis (% control): 43.8 % control

## CCC(=C(c1ccc(O)cc1)c1ccc(OCCN(C)C)cc1)c1ccccc1 [UNC10302895A]
[1]
  1. Cell count (% control): 114.3 % control
  2. Nuclear Area (% Control): 103.3 % Control
  3. Nuclear DNA Intensity (% control): 103.4 % control
[2]
  1. Cell count (% control): 134.2 % control
  2. Nuclear Area (% Control): 100.6 % Control
  3. Nuclear DNA Intensity (% control): 93.3 % control
[3]
  4. Phagocytosis (% control): 182.9 % control
[4]
  4. Phagocytosis (% control): 89.5 % control

## CC(=O)NCC(=O)N1[C@@H]2CC[C@H]1c1ccc(Nc3ncc(C(F)(F)F)c(NC4CCC4)n3)cc12 [UNC10302896A]
[1]
  1. Cell count (% control): 18.3 % control
  2. Nuclear Area (% Control): 110.7 % Control
  3. Nuclear DNA Intensity (% control): 18.8 % control
[2]
  1. Cell count (% control): 69.3 % control
  2. Nuclear Area (% Control): 158.3 % Control
  3. Nuclear DNA Intensity (% control): 82.5 % control
[3]
  4. Phagocytosis (% control): 0.15 % control
[4]
  4. Phagocytosis (% control): 16.0 % control

## OC(c1cc(C23CC4CC(CC(C4)C2)C3)nc2c(Cl)cc(Cl)cc12)C1CCCCN1 (stereo not drawn) [UNC10302897A]
[1]
  1. Cell count (% control): 63.8 % control
  2. Nuclear Area (% Control): 105.3 % Control
  3. Nuclear DNA Intensity (% control): 99.1 % control
[2]
  1. Cell count (% control): 110.1 % control
  2. Nuclear Area (% Control): 94.7 % Control
  3. Nuclear DNA Intensity (% control): 100.9 % control
[3]
  4. Phagocytosis (% control): 122.3 % control
[4]
  4. Phagocytosis (% control): 67.0 % control

## CN(C)CC[C@H](CSc1ccccc1)Nc1ccc(S(=O)(=O)NC(=O)c2ccc(N3CCN(Cc4ccccc4-c4ccc(Cl)cc4)CC3)cc2)cc1[N+](=O)[O-] [UNC10302898A]
[1]
  1. Cell count (% control): 128.7 % control
  2. Nuclear Area (% Control): 97.8 % Control
  3. Nuclear DNA Intensity (% control): 106.0 % control
[2]
  1. Cell count (% control): 148.0 % control
  2. Nuclear Area (% Control): 98.3 % Control
  3. Nuclear DNA Intensity (% control): 97.1 % control
[3]
  4. Phagocytosis (% control): 104.5 % control
[4]
  4. Phagocytosis (% control): 82.2 % control

## CC(Nc1nc(N2CCCC2)nc2ccccc12)c1ccccc1 (stereo not drawn) [UNC10302900A]
[1]
  1. Cell count (% control): 9.8 % control
  2. Nuclear Area (% Control): 106.6 % Control
  3. Nuclear DNA Intensity (% control): 119.7 % control
[2]
  1. Cell count (% control): 56.4 % control
  2. Nuclear Area (% Control): 90.6 % Control
  3. Nuclear DNA Intensity (% control): 151.6 % control
[3]
  4. Phagocytosis (% control): 110.9 % control
[4]
  4. Phagocytosis (% control): 34.5 % control

## O=c1ccc2c(OCCCCOc3ccccc3)c3ccoc3cc2o1 [UNC10302901A]
[1]
  1. Cell count (% control): 138.9 % control
  2. Nuclear Area (% Control): 105.4 % Control
  3. Nuclear DNA Intensity (% control): 102.9 % control
[2]
  1. Cell count (% control): 143.5 % control
  2. Nuclear Area (% Control): 101.6 % Control
  3. Nuclear DNA Intensity (% control): 95.5 % control
[3]
  4. Phagocytosis (% control): 188.1 % control
[4]
  4. Phagocytosis (% control): 89.9 % control

## CS[C@@]1(C(=O)Nc2ccc3[nH]nc(-c4ccc(OC(C)C)nc4)c3c2)CCN(CC(=O)N2CC=C(c3ccc(-c4ncn(C)n4)cc3)CC2)C1 [UNC10302902A]
[1]
  1. Cell count (% control): 54.0 % control
  2. Nuclear Area (% Control): 110.5 % Control
  3. Nuclear DNA Intensity (% control): 112.2 % control
[2]
  1. Cell count (% control): 113.2 % control
  2. Nuclear Area (% Control): 96.5 % Control
  3. Nuclear DNA Intensity (% control): 97.1 % control
[3]
  4. Phagocytosis (% control): 339.1 % control
[4]
  4. Phagocytosis (% control): 45.1 % control
